Like-named read-outs stand apart in the source and are kept apart here.
What was measured:
ADORA2A [1] = target: T1, ADORA2A (Homo sapiens, UniProt P29274); assay: GPCR screening, Calcium Flux (calcium mobilization), Antagonist format; type: cell-based; conditions: for Emax: read-out: Max Response
Protocol: (§1) Cell lines were expanded from freezer stocks according to standard procedures. Cells were seeded in a total volume of 20 μL into black-walled, clear-bottom, Poly-D-lysine coated 384-well microplates and incubated at 37° C. for the appropriate time prior to testing.
(§2) Assays were performed in 1×Dye Loading Buffer consisting of 1×Dye, 1×Additive A and 2.5 mM Probenecid in HBSS/20 mM Hepes. Probenicid was prepared fresh. Cells were loaded with dye prior to testing. Media was aspirated from cells and replaced with 20 μL Dye Loading Buffer. Cells were incubated for 30-60 minutes at 37° C.
For antagonist determination, cells were pre-incubated with sample followed by agonist challenge at the EC80 concentration. Intermediate dilution of sample stocks was performed to generate 3X sample in assay buffer. After dye loading, cells were removed from the incubator and 10 μL 3X sample was added. Cells were incubated for 30 minutes at room temperature in the dark to equilibrate plate temperature. Vehicle concentration was 1%.
Compound antagonist activity was measured on a FLIPR Tetra (MDS). Calcium mobilization was monitored for 2 minutes and 10 μL EC80 agonist in HBSS/20 mM Hepes was added to the cells 5 seconds into the assay.
For antagonist and negative allosteric modulation mode assays, percentage inhibition is calculated using the following formula: […]
(§3) When the calcium was released, the fluorescence of the dye was increased and the increase was measured in real-time.
FIGS. 1 and 2 show percent reacted (Y) versus concentration in μM (X). Compounds were tested in antagonist mode with the requested GPCR Biosensor Assay. For the antagonist assay, data was normalized to the maximal and minimal response observed in the presence of EC80 ligand and vehicle.

ADORA2A [2] = target: T1, ADORA2A; assay: GPCR screening, Calcium Flux (calcium mobilization), Agonist format; type: cell-based; conditions: read-out: Max Response
Protocol: as §1, §2
For agonist determination, cells were incubated with sample to induce response. […] Cells were incubated for 30 minutes at room temperature in the dark to equilibrate plate temperature.
Compound activity was analyzed using CBIS data analysis suite (ChemInnovation, CA).
as §3

[3] = Calcium Flux, Antagonist format
[4] = Calcium Flux, Antagonist format, EC80 0.021 μM NECA, read-out: RC50 (Result Type IC50)
[5] = antagonist mode, text to FIGS. 1 and 2, EC80 0.021 μM NECA, read-out: half maximal inhibitory concentration (IC50)

T1 sequence (P29274 whole entry): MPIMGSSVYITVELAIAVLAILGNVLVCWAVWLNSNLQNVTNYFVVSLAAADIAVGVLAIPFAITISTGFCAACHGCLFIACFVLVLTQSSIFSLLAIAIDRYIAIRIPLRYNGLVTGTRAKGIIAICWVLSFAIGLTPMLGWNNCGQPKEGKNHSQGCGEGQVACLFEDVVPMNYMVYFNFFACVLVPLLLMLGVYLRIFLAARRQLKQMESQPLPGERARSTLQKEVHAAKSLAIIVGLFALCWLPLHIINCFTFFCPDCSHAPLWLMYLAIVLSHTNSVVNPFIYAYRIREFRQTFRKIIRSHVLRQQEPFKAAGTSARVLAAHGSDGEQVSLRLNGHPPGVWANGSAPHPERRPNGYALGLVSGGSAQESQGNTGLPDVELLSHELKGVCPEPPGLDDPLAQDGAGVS

Compound | Curve Bottom (ADORA2A [1]; [3]) | Curve Top (ADORA2A [1]; [3]) | Hill (ADORA2A [1]; [3]) | IC50 (ADORA2A [1]; [4]) [nM] | Emax (ADORA2A [1]; [3]) [%] | IC50 (ADORA2A [1]; [5]) [nM] | Emax (ADORA2A [2]) [%]
CCn1c(=O)c2c(nc(/C=C/c3ccc(OC)c(OCF)c3)n2C)n(CC)c1=O [Compound 8, (E)-1,3-diethyl-8-(3-(fluoromethoxy)-4-methoxystyryl)-7-methyl-3,7-dihydro-1H-purine-2,6-dione] | 7.8668 | 99.957 | 1.7211 | 174 | 99.1 | 174 | 0
CCn1c(=O)c2c(nc(/C=C/c3ccc(OCF)c(OC)c3)n2C)n(CC)c1=O [Compound 9, (E)-1,3-diethyl-8-(4-(fluoromethoxy)-3-methoxystyryl)-7-methyl-3,7-dihydro-1H-purine-2,6-dione] | −.090144 | 99.922 | 1.3438 | 95.5 | 99.7 | 95.5 | 0
